Key:
in vitro = details: human, CC50, uninfected A549 cells, CellTiter-Glo
[1] = test system: Influenza strain A549 A/WSN/33 (H1N1); experiment: microbe, parasite or virus in culture; type: cell-based; details: Influenza A virus, A549, 20 h, A549 cells, influenza A/WSN/33 (H1N1), 20 hours incubation; read-out: A549_A(H1N1) EC50

For `C[C@@H]1/C=C/COc2c(ccc(F)c2F)[C@@H](c2ccccc2)N2CN1C(=O)c1c(O)c(=O)ccn12` (single isomer, unassigned) [Compound 148AA, (9*R,18*R,*E)-3,4-difluoro-12-hydroxy-9-methyl-18-phenyl-6,9-dihydro-18H-10,17-methanobenzo[b]pyrido[1,2-f][1]oxa[5,6,9]triazacyclotridecine-11,13-dione], the CC50 (in vitro) was > 50 nM and the EC50 [1] was 1.6 nM.
In the case of `O=C1c2c(O)c(=O)ccn2N2CN1C/C=C\COc1cc(Cl)ccc1[C@H]2c1ccccc1` (single isomer, unassigned) [Compound 72A, (18*R,Z)-3-chloro-12-hydroxy-18-phenyl-6,9-dihydro-18H-10,17-methanobenzo[b]pyrido[1,2-f][1]oxa[5,6,9]triazacyclotridecine-11,13-dione], the CC50 (in vitro) is reported as > 2000 nM and the EC50 [1] is reported as > 1000 nM.
For `O=C1c2c(O)c(=O)ccn2N2CN1CC/C=C\COc1ccc(F)c3c1[C@H]2c1ccccc1SC3` (single isomer, unassigned) [Compound 93B, (1*SR,13Z)-20-fluoro-7-hydroxy-16-oxa-23-thia-2,3,10-triazahexacyclo[15.12.1.12,10.03,8.021,30.024,29]hentriaconta-4,7,13,17,19,21(30),24(29),25,27-nonaene-6], the CC50 (in vitro) was > 200 nM and the EC50 [1] was 2.2 nM.
With `O=C1c2c(O)c(=O)ccn2N2CN1C/C=C\COc1ccccc1[C@H]2c1ccccc1F` (single isomer, unassigned) [Compound 36B, (18*S,Z)-18-(2-fluorophenyl)-12-hydroxy-6,9-dihydro-18H-10,17-methanobenzo[b]pyrido[1,2-f][1]oxa[5,6,9]triazacyclotridecine-11,13-dione] the CC50 (in vitro) was > 2000 nM and the EC50 [1] was 815 nM.
In the case of `O=C1c2c(O)c(=O)ccn2N2CN1CCOC/C=C\c1cccc3c1[C@H]2c1ccccc1CC3` (single isomer, unassigned) [Compound 83A, (13Z,23b*R)-6-hydroxy-9,10,12,18,19,23b-hexahydro-1,8-methanobenzo[4,5]cyclohepta[1,2,3-qr]pyrido[1,2-c][9,2,3,6]benzoxatriazacyclotetradecine-5,7-dione], the CC50 (in vitro) is reported as > 1000 nM and the EC50 [1] is reported as > 500 nM.
For `CC(C)[C@@H]1/C=C/COc2c(ccc(F)c2F)[C@H](c2ccccc2)N2CN1C(=O)c1c(O)c(=O)ccn12` (single isomer, unassigned) [Compound 128BA, (9*R,18*S,*E)-3,4-difluoro-12-hydroxy-9-isopropyl-18-phenyl-6,9-dihydro-18H-10,17-methanobenzo[b]pyrido[1,2-f][1]oxa[5,6,9]triazacyclotridecine-11,13-dione], the CC50 (in vitro) was > 200 nM and the EC50 [1] was > 100 nM.
With `O=C1c2c(O)c(=O)ccn2N2CN1C[C@H]1C[C@@H]1COc1cccc3c1[C@H]2c1ccccc1SC3` [Compound 87BA, (1aS,11bS,20aS)-17-hydroxy-1a,2,6,11b,20,20a-hexahydro-1H-5,4-(epiprop[1]en[1]yl[3]ylidene)-12,19-methanobenzo[6,7]thiepino[4,5-c]cyclopropa[k]pyrido[1,2-f][1]oxa[5,6,9]triazacyclotridecine-16,18-dione] the CC50 (in vitro) was > 200 nM and the EC50 [1] was 4 nM.
With `O=C1c2c(O)c(=O)ccn2N2CN1C/C=C\COc1ccc(F)cc1[C@H]2c1cccc(F)c1` (single isomer, unassigned) [Compound 25A, (18*R,Z)-2-fluoro-18-(3-fluorophenyl)-12-hydroxy-6,9-dihydro-18H-10,17-methanobenzo[b]pyrido[1,2-f][1]oxa[5,6,9]triazacyclotridecine-11,13-dione] the CC50 (in vitro) was > 2000 nM and the EC50 [1] was 9800 nM.
With `CC(C)[C@@H]1/C=C/COc2cc(F)c(F)c3c2[C@H](c2ccccc2SC3)N2CN1C(=O)c1c(O)c(=O)ccn12` (single isomer, unassigned) [Compound 169BB, (9*R,17a*R,*E)-24,25-difluoro-12-hydroxy-9-isopropyl-2,6,9,17a-tetrahydro-3,4-(epiprop[1]en[1]yl[3]ylidene)-10,17-methanobenzo[6,7]thiepino[4,5-c]pyrido[1,2-f][1]oxa[5,6,9]triazacyclotridecine-11,13-dione] the CC50 (in vitro) was > 100 nM and the EC50 [1] was 1.3 nM.
For `C[C@@H]1/C=C/COc2ccccc2[C@@H](c2ccccc2)N2CN1C(=O)c1c(O)c(=O)ccn12` (single isomer, unassigned) [Compound 29AA, (9*R, 18*R, E)-12-hydroxy-9-methyl-18-phenyl-6,9-dihydro-18H-10,17-methanobenzo[b]pyrido[1,2-f][1]oxa[5,6,9]triazacyclotridecine-11,13-dione], the CC50 (in vitro) was > 2000 nM and the EC50 [1] was > 3000 nM.
In the case of `O=C1c2c(O)c(=O)ccn2N2CN1C/C=C\COc1cc(F)c(F)cc1[C@H]2c1ccccc1` (single isomer, unassigned) [Compound 41A, (18*R,Z)-2,3-difluoro-12-hydroxy-18-phenyl-6,9-dihydro-18H-10,17-methanobenzo[b]pyrido[1,2-f][1]oxa[5,6,9]triazacyclotridecine-11,13-dione], the CC50 (in vitro) is reported as > 2000 nM and the EC50 [1] is reported as 294 nM.
In the case of `O=C1c2c(O)c(=O)ccn2N2CN1CCCCCc1ccncc1[C@H]2c1ccccc1` (single isomer, unassigned) [Compound 34A, (18*R)-12-hydroxy-18-phenyl-5,6,7,8,9,18-hexahydro-10,17-methanodipyrido[1,2-b:4′,3′-k][1,2,5]triazacyclotridecine-11,13-dione], the CC50 (in vitro) is reported as > 2000 nM and the EC50 [1] is reported as 59 nM.
With `O=C1c2c(O)c(=O)ccn2N2CN1C/C=C\COc1c(cccc1C(F)(F)F)[C@@H]2c1ccccc1` (single isomer, unassigned) [Compound 130B, (18*S,Z)-12-hydroxy-18-phenyl-4-(trifluoromethyl)-6,9-dihydro-18H-10,17-methanobenzo[b]pyrido[1,2-f][1]oxa[5,6,9]triazacyclotridecine-11,13-dione] the CC50 (in vitro) was > 200 nM and the EC50 [1] was > 100 nM.
With `CC[C@H]1/C=C/COc2c(F)cccc2[C@H](c2ccccc2)N2CN1C(=O)c1c(O)c(=O)ccn12` (single isomer, unassigned) [Compound 85BA, (9*S,18*S,E)-9-ethyl-4-fluoro-12-hydroxy-18-phenyl-6,9-dihydro-18H-10,17-methanobenzo[b]pyrido[1,2-f][1]oxa[5,6,9]triazacyclotridecine-11,13-dione] the CC50 (in vitro) was > 1000 nM and the EC50 [1] was > 500 nM.
With `O=C1c2c(O)c(=O)ccn2N2CN1C/C=C/CCc1ccccc1[C@H]2c1ccccn1` [Compound 43A, (17S,E)-4-hydroxy-16-(pyridin-2-yl)-7,10,11,16-tetrahydro-6,17-methanobenzo[k]pyrido[1,2-b][1,2,5]triazacyclotridecine-3,5-dione] the CC50 (in vitro) was > 2000 nM and the EC50 [1] was 22 nM.
With `O=C1c2c(O)c(=O)ccn2N2CN1CCCCOc1c(ccc(F)c1F)[C@@H]2c1ccccc1` (single isomer, unassigned) [Compound 115B, (18*S)-3,4-difluoro-12-hydroxy-18-phenyl-6,7,8,9-tetrahydro-18H-10,17-methanobenzo[b]pyrido[1,2-f][1]oxa[5,6,9]triazacyclotridecine-11,13-dione] the CC50 (in vitro) was > 200 nM and the EC50 [1] was 4.4 nM.
With `CC[C@H]1/C=C/COc2c(ccc(F)c2F)[C@H](c2ccccn2)N2CN1C(=O)c1c(O)c(=O)ccn12` (single isomer, unassigned) [Compound 160BA, (9*S,18*R,*E)-9-ethyl-3,4-difluoro-12-hydroxy-18-(pyridin-2-yl)-6,9-dihydro-18H-10,17-methanobenzo[b]pyrido[1,2-f][1]oxa[5,6,9]triazacyclotridecine-11,13-dione] the CC50 (in vitro) was > 100 nM and the EC50 [1] was > 50 nM.
In the case of `CSc1ccccc1[C@@H]1c2cccc(F)c2OC/C=C\CN2CN1n1ccc(=O)c(O)c1C2=O` (single isomer, unassigned) [Compound 119B, (18*S,*Z)-4-fluoro-12-hydroxy-18-(2-(methylthio)phenyl)-6,9-dihydro-18H-10,17-methanobenzo[b]pyrido[1,2-f][1]oxa[5,6,9]triazacyclotridecine-11,13-dione], the CC50 (in vitro) is reported as > 200 nM and the EC50 [1] is reported as 22 nM.
With `COc1ccccc1[C@@H]1c2cccc(F)c2OC/C=C\CN2CN1n1ccc(=O)c(O)c1C2=O` (single isomer, unassigned) [Compound 117A, (18*R,*Z)-4-fluoro-12-hydroxy-18-(2-methoxyphenyl)-6,9-dihydro-18H-10,17-methanobenzo[b]pyrido[1,2-f][1]oxa[5,6,9]triazacyclotridecine-11,13-dione] the CC50 (in vitro) was > 200 nM and the EC50 [1] was 29 nM.
In the case of `O=C1c2c(O)c(=O)ccn2N2CN1CCOC/C=C\c1cccc3c1[C@@H]2c1ccccc1CC3` (single isomer, unassigned) [Compound 83B, (13Z,23b*S)-6-hydroxy-9,10,12,18,19,23b-hexahydro-1,8-methanobenzo[4,5]cyclohepta[1,2,3-qr]pyrido[1,2-c][9,2,3,6]benzoxatriazacyclotetradecine-5,7-dione], the CC50 (in vitro) is reported as > 200 nM and the EC50 [1] is reported as 6 nM.
With `O=C1c2c(O)c(=O)ccn2N2CN1C[C@H]1C[C@@H]1COc1c(F)cccc1[C@H]2c1ccccc1` (single isomer, unassigned) [Compound 125AB, (1a*R,8*S,17a*R)-4-fluoro-14-hydroxy-8-phenyl-1a,2,17,17a-tetrahydro-1H,8H-9,16-methanobenzo[b]cyclopropa[k]pyrido[1,2-f][1]oxa[5,6,9]triazacyclotridecine-13,15-dione] the CC50 (in vitro) was > 200 nM and the EC50 [1] was 24 nM.
With `CC[C@H]1/C=C/COc2c(ccc(F)c2F)[C@@H](c2ccccn2)N2CN1C(=O)c1c(O)c(=O)ccn12` (single isomer, unassigned) [Compound 160AA, (9*S,18*S,*E)-9-ethyl-3,4-difluoro-12-hydroxy-18-(pyridin-2-yl)-6,9-dihydro-18H-10,17-methanobenzo[b]pyrido[1,2-f][1]oxa[5,6,9]triazacyclotridecine-11,13-dione] the CC50 (in vitro) was > 100 nM and the EC50 [1] was 5.2 nM.
For `CC[C@@H]1/C=C\COc2cccc3c2[C@@H](c2ccccc2SC3)N2CN1C(=O)c1c(O)c(=O)ccn12` [Compound 92BB, (13R,21aS,Z)-13-ethyl-16-hydroxy-6,10,13,21a-tetrahydro-7,8-(epiprop[1]en[1]yl[3]ylidene)-14,21-methanobenzo[6,7]thiepino[4,5-c]pyrido[1,2-f][1]oxa[5,6,9]triazacyclotridecine-15,17-dione], the CC50 (in vitro) was > 100 nM and the EC50 [1] was 1.5 nM.

From patent US11312727B1, “Macrocyclic flu endonuclease inhibitors” (Janssen BioPharma, Inc., priority 2018, dated 2022)
